Assay results reported in patent US20160355530A1, “HEPATITIS C INHIBITORS AND USES THEREOF” (AbbVie Inc., priority 2010, published 2016).
pEC50, pIC50: −log10 of the molar value. Like-named read-outs stand apart in the source and are kept apart here.

How the values were obtained:
[1] = test system: HCV 1a-H77 subgenomic replicon; experiment: microbe, parasite or virus in culture; type: cell-based, HCV genotype 1a; details: Hepatitis C virus
[2] = test system: chimeric replicon with genotype 3a NS5B; experiment: microbe, parasite or virus in culture; type: cell-based, HCV genotype 3a; details: Hepatitis C virus, read-out: 3a chimera 5% FBS EC50
[3] = test system: chimeric replicon with 2a-J6CF-derived NS5B; experiment: microbe, parasite or virus in culture; type: cell-based, HCV genotype 2a; details: Hepatitis C virus, read-out: 2a chimera 5% FBS EC50
[4] = test system: chimeric replicon with genotype 4a NS5B; experiment: microbe, parasite or virus in culture; type: cell-based, HCV genotype 4a; details: Hepatitis C virus, read-out: 4a chimera 5% FBS EC50
[5] = test system: HCV NS5B polymerase 1a-H77-C316Y; experiment: biochemical; parameters: species or system HCV genotype 1a; details: ratio of enzyme IC50s, 1a H77-C316Y / 1a H77
In short: (§1)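 Recombinant NS5B (residues 1–570, His-tagged, E. coli-expressed) copied 5 nM of a 2.1 kb HCV 1b negative-strand 3′-end RNA template with 20 μM CTP, 20 μM ATP and 0.284 μM [3H]UTP for 3 h at 30 °C. Spermine-precipitated RNA was filter-captured and counted, and IC50 was fitted by nonlinear regression.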

[6] = molecular target: T1, HCV NS5B polymerase 1a-H77-C316Y (Hepatitis C virus genotype 1a, UniProt P27958, C2736Y); experiment: biochemical; parameters: species or system HCV genotype 1a
T1 construct: six-histidine tag; made in house; host or cells: E. coli
T1 sequence (P27958 2421-2990 C2736Y): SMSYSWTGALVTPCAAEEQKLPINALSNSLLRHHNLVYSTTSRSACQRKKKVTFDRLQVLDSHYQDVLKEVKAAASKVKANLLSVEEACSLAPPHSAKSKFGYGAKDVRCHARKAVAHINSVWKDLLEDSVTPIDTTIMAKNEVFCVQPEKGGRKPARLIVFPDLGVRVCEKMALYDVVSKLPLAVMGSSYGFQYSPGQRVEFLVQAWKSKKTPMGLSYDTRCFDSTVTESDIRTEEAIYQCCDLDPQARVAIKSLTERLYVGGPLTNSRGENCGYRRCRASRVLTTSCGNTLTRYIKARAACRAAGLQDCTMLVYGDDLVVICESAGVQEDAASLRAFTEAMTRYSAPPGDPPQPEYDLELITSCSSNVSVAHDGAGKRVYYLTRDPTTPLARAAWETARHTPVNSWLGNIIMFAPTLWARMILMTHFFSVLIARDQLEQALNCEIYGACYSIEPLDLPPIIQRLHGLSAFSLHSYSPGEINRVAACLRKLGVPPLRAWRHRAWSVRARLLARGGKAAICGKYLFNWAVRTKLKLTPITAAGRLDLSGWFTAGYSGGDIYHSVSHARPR
In short: as §1

[7] = molecular target: T2, HCV NS5B polymerase 1a-H77 (Hepatitis C virus genotype 1a, UniProt P27958); experiment: biochemical; parameters: species or system HCV genotype 1a
T2 construct: six-histidine tag; made in house; host or cells: E. coli
T2 sequence (P27958 2421-2990): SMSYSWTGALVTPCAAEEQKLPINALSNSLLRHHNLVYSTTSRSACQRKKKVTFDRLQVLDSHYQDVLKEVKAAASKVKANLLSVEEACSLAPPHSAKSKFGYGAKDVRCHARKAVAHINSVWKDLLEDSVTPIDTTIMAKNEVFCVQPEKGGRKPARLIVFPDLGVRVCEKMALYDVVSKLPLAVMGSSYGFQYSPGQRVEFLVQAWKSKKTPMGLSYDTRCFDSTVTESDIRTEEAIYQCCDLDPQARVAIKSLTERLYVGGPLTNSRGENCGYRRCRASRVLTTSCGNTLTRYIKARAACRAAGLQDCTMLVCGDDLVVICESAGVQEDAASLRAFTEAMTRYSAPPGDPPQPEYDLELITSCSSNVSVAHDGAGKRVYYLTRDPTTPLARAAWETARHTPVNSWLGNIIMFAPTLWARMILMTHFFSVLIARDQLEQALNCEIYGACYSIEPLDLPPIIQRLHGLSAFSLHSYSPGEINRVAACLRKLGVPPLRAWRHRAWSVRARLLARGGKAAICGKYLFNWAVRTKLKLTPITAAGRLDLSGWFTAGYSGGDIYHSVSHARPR
In short: as §1

[8] = test system: HCV 1b-BB7 subgenomic replicon; experiment: microbe, parasite or virus in culture; type: cell-based, HCV genotype 1b; details: Hepatitis C virus
[9] = molecular target: T3, HCV NS5B polymerase 1b BK strain (Hepatitis C virus genotype 1b, UniProt P26663); experiment: HCV NS5B polymerase enzymatic inhibition assay, strain 1b BK; type: biochemical
T3 construct: six-histidine tag; made in house; host or cells: E. coli
T3 sequence (P26663 2420-2989): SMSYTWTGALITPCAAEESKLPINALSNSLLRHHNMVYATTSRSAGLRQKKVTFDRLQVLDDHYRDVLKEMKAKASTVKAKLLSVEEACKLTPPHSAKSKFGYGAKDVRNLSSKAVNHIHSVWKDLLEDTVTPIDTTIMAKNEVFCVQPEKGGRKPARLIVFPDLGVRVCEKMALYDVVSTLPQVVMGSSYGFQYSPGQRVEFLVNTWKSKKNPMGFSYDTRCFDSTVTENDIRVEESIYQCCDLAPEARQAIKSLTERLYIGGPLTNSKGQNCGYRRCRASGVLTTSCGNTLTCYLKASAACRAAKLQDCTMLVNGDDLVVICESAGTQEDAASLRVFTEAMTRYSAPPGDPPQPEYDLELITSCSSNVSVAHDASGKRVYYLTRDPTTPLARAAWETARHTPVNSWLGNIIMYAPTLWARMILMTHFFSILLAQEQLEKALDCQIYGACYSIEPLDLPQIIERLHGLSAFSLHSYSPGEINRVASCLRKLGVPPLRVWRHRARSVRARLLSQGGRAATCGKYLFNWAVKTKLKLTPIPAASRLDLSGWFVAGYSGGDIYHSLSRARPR
In short: as §1

[10] = test system: chimeric replicon with genotype 2b NS5B; experiment: microbe, parasite or virus in culture; type: cell-based, HCV genotype 2b; details: Hepatitis C virus, read-out: 2b chimera 5% FBS EC50
[11] = test system: HCV 1a-H77-C316Y transient subgenomic replicon in Huh-7 derived cell line; experiment: microbe, parasite or virus in culture; type: cell-based, HCV genotype 1a; details: for pEC50: Hepatitis C virus, Huh-7, read-out: Transient Replicon 1a H77-C316Y 5% FBS EC50; for Transient Replicon Fold Resistance C316Y/1a: ratio of transient replicon EC50s, C316Y / 1a H77
In short: (§2)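 Transient format: T7-transcribed replicon RNA lacking Neo, electroporated into Huh-7-derived cells (5×10^3/well), input RNA checked by luciferase at 4 h. Three-fold compound dilution series, 0.5% DMSO, 4 days at 37° C; EC50 from luciferase signal in lysed cells.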

[12] = test system: HCV 1a-H77 transient subgenomic replicon in Huh-7 derived cell line; experiment: microbe, parasite or virus in culture; type: cell-based, HCV genotype 1a; details: Hepatitis C virus
In short: as §2

[13] = stable replicon, 5% FBS, absence of human plasma, read-out: Stable Replicon 1a H77 5% FBS EC50
[14] = stable replicon, strain 1a H77, 5% FBS + 40% human plasma, read-out: 1a H77 5% FBS + 40% Human Plasma EC50
[15] = stable replicon, strain 1a H77, 5% FBS, no human plasma, read-out: 1a H77 5% FBS EC50
[16] = stable replicon, strain 1a H77, 5% FBS, read-out: 1a H77 5% FBS EC50
[17] = enzyme, strain 1a H77, read-out: HCV Polymerase Strain 1a H77 IC50
[18] = stable replicon, strain 1b BB7, 5% FBS + 40% human plasma, read-out: 1b BB7 5% FBS + 40% Human Plasma EC50
[19] = stable replicon, strain 1b BB7, 5% FBS, no human plasma, read-out: 1b BB7 5% FBS EC50
[20] = stable replicon, strain 1b BB7, 5% FBS, read-out: 1b BB7 5% FBS EC50
[21] = enzyme, strain 1b BK, read-out: HCV Polymerase Strain 1b BK IC50
[22] = Huh-7, transient replicon, 5% FBS, read-out: Transient Replicon 1a H77 5% FBS EC50

CS(=O)(=O)N(CCCC#N)c1cc2oc(-c3ccc(F)cc3)c(-c3ncc[nH]3)c2cc1C1CC1 [Example 49, N-(3-cyanopropyl)-N-[5-cyclopropyl-2-(4-fluorophenyl)-3-(1H-imidazol-2-yl)-1-benzofuran-6-yl]methanesulfonamide]
pEC50 [1, 13]: 8.43 | pEC50 [1, 14]: 7.27 | pEC50 [1, 15]: 8.43 | pEC50 [1, 16]: 8.43 | pEC50 [2]: 8.43 | pEC50 [3]: 7.65 | pEC50 [4]: 7.47 | C316Y/1a Fold Resistance [5]: 10 fold | pIC50 [6]: 7.28 | pIC50 [7, 17]: 8.30 | pEC50 [8, 18]: 7.55 | pEC50 [8, 19]: 8.52 | pEC50 [8, 20]: 8.52 | pIC50 [9, 21]: 7.77 | pEC50 [10]: 7.38 | pEC50 [11]: 7.11 | Transient Replicon Fold Resistance C316Y/1a [11]: 35 fold | pEC50 [12, 22]: 8.66

CCOC(=O)CCCCN(c1cc2oc(-c3ccc(F)cc3)c(-c3ncc[nH]3)c2cc1C1CC1)S(C)(=O)=O [Example 50, ethyl 5-{[5-cyclopropyl-2-(4-fluorophenyl)-3-(1H-imidazol-2-yl)-1-benzofuran-6-yl](methylsulfonyl)amino}pentanoate]
pEC50 [1, 13]: 7.91 | pEC50 [1, 14]: 7.01 | pEC50 [1, 15]: 7.91 | pEC50 [1, 16]: 7.91 | pEC50 [2]: 7.82 | pEC50 [3]: 7.04 | pEC50 [4]: 6.83 | C316Y/1a Fold Resistance [5]: 27 fold | pIC50 [6]: 6.98 | pIC50 [7, 17]: 8.41 | pEC50 [8, 18]: 7.17 | pEC50 [8, 19]: 8.06 | pEC50 [8, 20]: 8.06 | pIC50 [9, 21]: 7.92 | pEC50 [10]: 6.83 | pEC50 [11]: 6.77 | Transient Replicon Fold Resistance C316Y/1a [11]: 18 fold | pEC50 [12, 22]: 8.02

CS(=O)(=O)N(CCC1CCS(=O)(=O)C1)c1cc2oc(-c3ccc(F)cc3)c(-c3ncc[nH]3)c2cc1C1CC1 (stereo not shown) [Example 61, N-[5-cyclopropyl-2-(4-fluorophenyl)-3-(1H-imidazol-2-yl)-1-benzofuran-6-yl]-N-[2-(1,1-dioxidotetrahydrothiophen-3-yl)ethyl]methanesulfonamide]
pEC50 ([1]; read-out: 1a H77 5% FBS + 40% Human Plasma EC50): 7.14 | pEC50 ([1]; read-out: 1a H77 5% FBS EC50): 8.27 | pEC50 ([1]; read-out: Stable Replicon 1a H77 5% FBS EC50): 8.27 | pEC50 [2]: 8.21 | pEC50 [3]: 7.39 | pEC50 [4]: 7.74 | C316Y/1a Fold Resistance [5]: 9 fold | pIC50 [6]: 7.12 | pIC50 [7]: 8.05 | pEC50 ([8]; read-out: 1b BB7 5% FBS + 40% Human Plasma EC50): 7.74 | pEC50 ([8]; read-out: 1b BB7 5% FBS EC50): 8.52 | pIC50 [9]: 7.80 | pEC50 [10]: 7.52 | pEC50 [11]: 7.34 | Transient Replicon Fold Resistance C316Y/1a [11]: 13 fold | pEC50 ([12]; Huh-7, read-out: Transient Replicon 1a H77 5% FBS EC50): 8.44

Cc1ccc(C)n1-c1nc(CCCN(c2cc3oc(-c4ccc(F)cc4)c(-c4ncc[nH]4)c3cc2C2CC2)S(C)(=O)=O)cs1 [Example 62, N-[5-cyclopropyl-2-(4-fluorophenyl)-3-(1H-imidazol-2-yl)-1-benzofuran-6-yl]-N-{3-[2-(2,5-dimethyl-1H-pyrrol-1-yl)-1,3-thiazol-4-yl]propyl}methanesulfonamide]
pEC50 [1, 13]: 7.05 | pEC50 [1, 14]: 6.47 | pEC50 [1, 15]: 7.05 | pEC50 [1, 16]: 7.05 | pEC50 [2]: 7.30 | pEC50 [3]: 6.51 | pEC50 [4]: 6.44 | C316Y/1a Fold Resistance [5]: 65 fold | pIC50 [6]: 6.60 | pIC50 [7, 17]: 8.41 | pEC50 [8, 18]: 6.48 | pEC50 [8, 19]: 7.15 | pEC50 [8, 20]: 7.15 | pIC50 [9, 21]: 7.85 | pEC50 [10]: 6.33 | pEC50 [11]: 6.05 | Transient Replicon Fold Resistance C316Y/1a [11]: 15 fold | pEC50 [12, 22]: 7.22

CS(=O)(=O)N(CC#N)c1cc2oc(-c3ccc(F)cc3)c(-c3ncc[nH]3)c2cc1C1CC1 [Example 63, N-(cyanomethyl)-N-[5-cyclopropyl-2-(4-fluorophenyl)-3-(1H-imidazol-2-yl)-1-benzofuran-6-yl]methanesulfonamide]
pEC50 [1, 13]: 7.17 | pEC50 [1, 14]: 5.94 | pEC50 [1, 15]: 7.17 | pEC50 [1, 16]: 7.17 | pEC50 [2]: 8.17 | pEC50 [3]: 6.88 | pEC50 [4]: 6.15 | C316Y/1a Fold Resistance [5]: 470 fold | pIC50 [6]: 5.68 | pIC50 [7, 17]: 8.35 | pEC50 [8, 18]: 6.71 | pEC50 [8, 19]: 7.84 | pEC50 [8, 20]: 7.84 | pIC50 [9, 21]: 7.33 | pEC50 [10]: 6.97 | pEC50 [11]: 5.72 | Transient Replicon Fold Resistance C316Y/1a [11]: 25 fold | pEC50 [12, 22]: 7.12

CS(=O)(=O)N(CCCO)c1cc2oc(-c3ccc(F)cc3)c(-c3ncc[nH]3)c2cc1C1CC1 [Example 65, N-[5-cyclopropyl-2-(4-fluorophenyl)-3-(1H-imidazol-2-yl)-1-benzofuran-6-yl]-N-(3-hydroxypropyl)methanesulfonamide]
pEC50 [1, 13]: 7.99 | pEC50 [1, 14]: 6.92 | pEC50 [1, 15]: 7.99 | pEC50 [1, 16]: 7.99 | pEC50 [2]: 8.40 | pEC50 [3]: 7.37 | pEC50 [4]: 7.06 | C316Y/1a Fold Resistance [5]: 24 fold | pIC50 [6]: 6.78 | pIC50 [7, 17]: 8.16 | pEC50 [8, 18]: 7.23 | pEC50 [8, 19]: 8.17 | pEC50 [8, 20]: 8.17 | pIC50 [9, 21]: 7.28 | pEC50 [10]: 7.16 | pEC50 [11]: 6.64 | Transient Replicon Fold Resistance C316Y/1a [11]: 42 fold | pEC50 [12, 22]: 8.27

CS(=O)(=O)N(CCCS(N)(=O)=O)c1cc2oc(-c3ccc(F)cc3)c(-c3ncc[nH]3)c2cc1C1CC1 [Example 80, 3-{[5-cyclopropyl-2-(4-fluorophenyl)-3-(1H-imidazol-2-yl)-1-benzofuran-6-yl](methylsulfonyl)amino}propane-1-sulfonamide]
pEC50 [1, 13]: 7.92 | pEC50 [1, 14]: 7.28 | pEC50 [1, 15]: 7.92 | pEC50 [1, 16]: 7.92 | pEC50 [2]: 7.91 | pEC50 [3]: 6.68 | pEC50 [4]: 6.43 | C316Y/1a Fold Resistance [5]: 11 fold | pIC50 [6]: 7.26 | pIC50 [7, 17]: 8.30 | pEC50 [8, 18]: 7.14 | pEC50 [8, 19]: 7.97 | pEC50 [8, 20]: 7.97 | pIC50 [9, 21]: 7.80 | pEC50 [10]: 6.55 | pEC50 [11]: 6.79 | Transient Replicon Fold Resistance C316Y/1a [11]: 20 fold | pEC50 [12, 22]: 8.08

CS(=O)(=O)N(CCCCF)c1cc2oc(-c3ccc(F)cc3)c(-c3ncc[nH]3)c2cc1C1CC1 [Example 83, N-[5-cyclopropyl-2-(4-fluorophenyl)-3-(1H-imidazol-2-yl)-1-benzofuran-6-yl]-N-(4-fluorobutyl)methanesulfonamide]
pEC50 [1, 13]: 8.16 | pEC50 [1, 14]: 7.05 | pEC50 [1, 15]: 8.16 | pEC50 [1, 16]: 8.16 | pEC50 [2]: 8.21 | pEC50 [3]: 7.33 | pEC50 [4]: 7.17 | C316Y/1a Fold Resistance [5]: 14 fold | pIC50 [6]: 7.10 | pIC50 [7, 17]: 8.26 | pEC50 [8, 18]: 7.02 | pEC50 [8, 19]: 8.09 | pEC50 [8, 20]: 8.09 | pIC50 [9, 21]: 7.59 | pEC50 [10]: 7.33 | pEC50 [11]: 6.89 | Transient Replicon Fold Resistance C316Y/1a [11]: 21 fold | pEC50 [12, 22]: 8.22
